Square brackets hold non-standard residues; d marks the D form. Peptide text beside a SMILES is read from it. * marks the point of attachment. Dolaproine = CO[C@@H]([C@@H]1CCCN1)[C@@H](C)C(=O)O; Dil = CC[C@H](C)[C@H](NC)[C@@H](CC(=O)O)OC; X1 = C[C@@H](N*)[C@@H](O)c1ccccc1; NMeV = CN[C@H](C(=O)O)C(C)C
Assays:
[1] = system: Granta-519, HCT-116 and HeLa cells; assay: Mitotic arrest and Mcl-1 degradation with MMAE (FIG. 5); assay type: cell-based
[2] = system: myc-Mcl-1 / FLAG-FBW7; assay: Recruitment of myc-Mcl-1 to FLAG-FBW7 in mitotic arrest (immunoprecipitation, HeLa cells); assay type: cell-based, human; conditions: HeLa released into paclitaxel; agent 1 hour then 3 hour 25 μM MG-132; SP600125 25 μM, SB203580 2.65 μM, CGP74514A, roscovitine 2.5 μM
Description: The indicated constructs were expressed in HeLa cells with or without scramble or cdc20 RNAi, and then synchronized and released into paclitaxel. […] Cells were subsequently collected and processed as indicated.
(§1) Western blotting was performed essentially as described (Wertz, I. E. et al. (2004) Science (New York, N.Y 303:1371-1374). In brief, cells were lysed in corrected FLAG elution buffer (CFEB) (19.17 mM Tris (pH 7.5), 916.7 μM MgCl2, 92.5 mM NaCl and 0.1% Triton X-100) with protease and phosphatase inhibitors; in some cases 6 M urea was added. Cleared lysates were quantitated and equal amounts of proteins were reduced, alkylated, separated by SDS-PAGE, and transferred onto PVDF membranes (Invitrogen) following standard procedures. Western blotting was performed as recommended by the respective antibody manufacturers. Patient tissue and xenograft samples were lysed in 5× volume of CFEB with protease inhibitors using Fast prep 24 (MP Biologicals). Tissue lysates were cleared and 40 μg total protein was prepared for western blotting analysis as described above. Immunoprecipitations were performed with the indicated antibodies as described (Willis, S. N. et al. (2007) Science (New York, N.Y 315:856-859; Wertz, I. E. et al. (2004) Science (New York, N.Y 303:1371-1374). PP2A activity was performed on PP2A or Mcl-1 immunoprecipitates as recommended by the manufacturer (Upstate)

[3] = system: Mcl-1; assay: Mcl-1 protein level / degradation in mitotic arrest (western blot of synchronized cells); assay type: cell-based, human; conditions: for maintenance of mitotic arrest (cdc27 phosphorylation) / Mcl-1 degradation in mitotic arrest: HeLa released into paclitaxel; for maintenance of mitotic arrest (cdc27 phosphorylation): CGP74514A 2 μM or roscovitine 2.5 μM; for Mcl-1 degradation in mitotic arrest: CGP74514A 2 μM, FR180204 2 μM, SP600125 25 μM, SB203580 2 μM added on entry into mitotic arrest
Description: (§2) The viability of cancer cell lines, and MEFs in which genes encoding IAPs had been knocked out, was analysed by using the CellTiter-Glo Luminescent Cell Viability Assay® (Promega). Cells were treated in triplicate with anti-tubulin agents for the indicated times, using dimethylsulphoxide treatment as a control. The viability of BCL2-family-member-null MEFs was analysed by propidium iodide staining, as described previously (Chen, L. et al. (2005) Molecular cell 17:393-403), after treatment with anti-tubulin agents for 48 h. Cell synchronization was achieved by culture either in serum-free medium for 12-16 h or in medium containing 2 mM thymidine for 18-24 h, release from the thymidine block with three washes in PBS, followed by culture for 8-12 h in complete growth media (compositions are described in the Supplementary Information). Cells then underwent a second thymidine block for 16-20 h, three further washes in PBS and release into complete medium containing the indicated reagents. To block MCL1 degradation, […] MG132 was added as cells entered mitotic arrest, as assessed by visual inspection. See the Examples for full methods.
as §1

[4] = system: murine embryonic fibroblasts (MEFs); assay: Viability of BCL2-family-member-null MEFs by propidium iodide staining after anti-tubulin agents; assay type: cell-based; conditions: for killing (cell viability): treated 48 hours; for sensitivity to killing: 48 hours
Description: as §2

[5] = system: ovarian cancer cell lines; assay: Cell viability of ovarian cancer cell lines by FBW7 status; assay type: cell-based, human; conditions: FBW7-wild-type ovarian cancer cell lines that undergo mitotic arrest, relative to FBW7-mutant cells
Description: as §2

[6] = system: ovarian cancer cell lines; assay: Mitotic arrest in asynchronous ovarian cancer cell lines (western blot, phospho-histone H3 ELISA); assay type: cell-based, human; conditions: unsynchronized cell lines, 200 nM paclitaxel
Description: The unsynchronized cell lines (with FBW7 status specified in parentheses) were treated with 200 nM paclitaxel and were subsequently collected at the indicated time points for western blot and phospho-histone H3 ELISA analysis.

[7] = system: MEFs in which genes encoding IAPs had been knocked out; assay: Cell viability of MEF cell lines deficient in IAP genes (CellTiter-Glo); assay type: cell-based, murine; conditions: IAP-deficient MEFs plus siRNA, 48 hours
Description: as §2

[8] = system: HCT116 cells; assay: Live time-lapse imaging of mitotic fate; assay type: cell-based, human
Description: HCT116 parental or FBW7−/− cells expressing shLacZ or shMcl-1 were plated at 15,000-30,000 cells per well in 96-well μ-plates (ibidi GmbH) and infected with GFP-H2B baculovirus (Invitrogen) 24 hours prior to adding paclitaxel or vincristine. Cells were imaged live at 37° C. with 5% CO2 using a Nikon TiE® microscope with a Cool Snap® CCD camera (Roper Scientific) and a Plan Apo VC 20× 0.75 NA objective. Three images with 6 μm z-steps were acquired for each position every 10 minutes for 43 hours. Mitotic fate was analyzed manually using NIS-Elements software (Nikon) and numerical data was complied and statistically analyzed using Excel (Microsoft). Fifty mitotic cells were analyzed for each condition and p-values were calculated for the change in the number of cells that exited mitosis or entered apoptosis using the one-tailed Fisher's exact test.

[9] = system: FBW7-WT, FBW7−/− or FBW7 mutant colon cancer cell lines (HCT116, DLD1); assay: Cell viability of colon cancer cell lines by FBW7 status (CellTiter-Glo); assay type: cell-based, human; conditions: 48 hours
Description: as §2
were synthesized by Ambion and experiments were performed as described (Huang, H. C., et al (2009) Cancer cell 16:347-358). For viability experiments using stable cell lines transfected with doxycycline-inducible shRNAs to LacZ or Mcl-1 ORF, cells were plated in 10 cm2 plates with 0.2 μg/mL doxycycline for two days. On the third day, cells were plated in to 96-well plates at 5×10^3 per well for viability assays as described above. […] For western blot analysis, cells were harvested at indicated time points and processed as described above.

[10] = system: TOV112D-X1 ovarian tumors; assay: Ovarian tumor xenografts in vivo; design: species or system athymic nu/nu mice; conditions: tumors expressing FBW7-R505L vs FBW7-wild-type; 20 mg/kg intravenous, days 21 and 23 post implant
Description: Wild-type FBW7 TOV112D-X1 ovarian cancer cells expressing either an empty vector (vector) or the R505L point mutant (FBW7-R505L) were resuspended in Matrigel® (BD Biosciences) at a density of 1×10^8 cells/mL, and […] Matrigel® grafts containing 1×10^6 cancer cells were implanted under the kidney capsule of 8-week-old athymic nu/nu mice (Harlan Sprague Dawley). Only one graft was implanted per mouse. Once tumors became palpable on the kidney surface, tumor growth was assessed three times per week via caliper measurements of the entire kidney volume (0.523×length×width×height). On day 21 post-implant, when tumors reached an average volume of 700 mm^3, paclitaxel (APP Pharmaceuticals) was administered to both FBW7-WT and FBW7-R505L tumor groups via intravenous tail vein injection at 20 mg/kg in 5% dextrose water. Paclitaxel administration was repeated on day 23 post-implant. Statistical differences were evaluated using a two-tailed Student's t-test. P values of less than 0.05 were considered significant.

## CC[C@H](C)[C@@H]([C@@H](CC(=O)N1CCC[C@H]1[C@H](OC)[C@@H](C)C(=O)N[C@H](C)[C@@H](O)c1ccccc1)OC)N(C)C(=O)[C@@H](NC(=O)[C@@H](NC)C(C)C)C(C)C [MMAE, (S)—N-((3R,4S,5S)-1-((S)-2-((1R,2R)-3-(((1S,2R)-1-hydroxy-1-phenylpropan-2-yl)amino)-1-methoxy-2-methyl-3-oxopropyl)pyrrolidin-1-yl)-3-methoxy-5-methyl-1-oxoheptan-4-yl)-N,3-dimethyl-2-((S)-3-methyl-2-(methylamino)butanamido)butanamide] (H-[NMeV]V[Dil][Dolaproine]-X1)
[1]
  mitotic arrest (phospho-cdc27): promotes mitotic arrest
[1]; subsequent to mitotic arrest
  Mcl-1 degradation: Mcl-1 degradation

## CC[C@H](CO)Nc1nc(NCc2ccccc2)c2ncn(C(C)C)c2n1 [roscovitine]
[2]
  recruitment of myc-Mcl-1 to FLAG-FBW7 in mitotic arrest: attenuates recruitment of myc-Mcl-1 to FLAG-FBW7
[3]
  maintenance of mitotic arrest (cdc27 phosphorylation): drives cells out of mitotic arrest

## CC(=O)O[C@H]1C(=O)[C@@]2(C)[C@H]([C@H](OC(=O)c3ccccc3)[C@]3(O)CC(OC(=O)[C@H](O)[C@@H](NC(=O)c4ccccc4)c4ccccc4)C(C)=C1C3(C)C)[C@]1(OC(C)=O)CO[C@@H]1C[C@@H]2O (relative stereo) [paclitaxel, β-(benzoylamino)-α-hydroxy-,6,12b-bis(acetyloxy)-12-(benzoyloxy)-2a,3,4,4a,5,6,9,10,11,12,12a,12b-dodecahydro-4,11-dihydroxy-4a,8,13,13-tetramethyl-5-oxo-7,11-methano-1H-cyclodeca(3,4)benz(1,2-b) oxet-9-ylester,(2aR-(2a-α,4-β,4a-β,6-β,9-α(α-R*,β-S*),11-α,12-α,12α-α,2b-α))-benzenepropanoic acid]
[4]; BAX−/−/BAK−/− MEFs
  killing (cell viability): resistant
[4]; BCL-X−/− MEFs vs wild-type
  sensitivity to killing: more sensitive than wild-type cells
[4]; MCL-1−/− MEFs vs wild-type
  sensitivity to killing: enhanced sensitivity
[4]; wild-type MEFs
  killing (cell viability): significantly more sensitive
[5]
  sensitivity (cell viability): sensitive
[6]
  mitotic arrest: arrested in mitosis
[7]
  cell sensitivity upon ablation of IAP family proteins: does not enhance cell sensitivity
[8]; FBW7-null cells with Mcl-1 shRNA vs control shRNA
  drug-induced apoptosis upon decreasing Mcl-1 protein levels: enhanced
[8]; FBW7-null vs FBW7-wild-type cells
  exit from drug-induced mitotic arrest (mitotic slippage): more readily
[9]; FBW7-null HCT116 cells, doxycycline-inducible Mcl-1 shRNA
  sensitivity to drug-induced death upon reducing Mcl-1 protein: restored their sensitivity
[9]; FBW7-null cell lines relative to wild-type cells
  resistance to drug-induced cell death: more resistant
[9]; FBW7−/− or FBW7 mutant colon cancer cell lines relative to FBW7-WT
  resistance to drug-induced cell death: more resistant
[10]
  tumor resistance (tumor volume growth curves): more resistant
[3]; synchronized cells (HeLa) released into the agent
  Mcl-1 protein level in mitotic arrest: declined markedly

## C[S+]([O-])c1ccc(-c2nc(-c3ccncc3)c(-c3ccc(F)cc3)[nH]2)cc1 (centres unmarked) [SB203580]
[2]
  recruitment of myc-Mcl-1 to FLAG-FBW7 in mitotic arrest: attenuates recruitment of myc-Mcl-1 to FLAG-FBW7
[3]
  Mcl-1 degradation in mitotic arrest: attenuate Mcl-1 degradation

## CCn1cnc2c(Nc3cccc(Cl)c3)nc(N[C@@H]3CCCC[C@@H]3N)nc21 [CGP74514A]
[2]
  recruitment of myc-Mcl-1 to FLAG-FBW7 in mitotic arrest: attenuates recruitment of myc-Mcl-1 to FLAG-FBW7
[3]
  maintenance of mitotic arrest (cdc27 phosphorylation): drives cells out of mitotic arrest
  Mcl-1 degradation in mitotic arrest: attenuate Mcl-1 degradation

From patent US20160136295A1, “BIOMARKERS FOR TREATMENT WITH ANTI-TUBULIN CHEMOTHERAPEUTIC COMPOUNDS” (GENENTECH, INC., priority 2012, published 2016)
